Experimental data taken from patent US20230242534A9, “INHIBITORS OF CYCLIN-DEPENDENT KINASE 7 AND USES THEREOF” (Dana-Farber Cancer Institute, Inc., priority 2019, published 2023).
Where two headings read alike, the source gives them in different places.

How the values were obtained:
[1] = molecular target: T1, SET Human Serotonin Transporter (Homo sapiens, UniProt P31645); test: 5-HT inhibition assay: Cerep SET Human Serotonin Transporter Binding (Antagonist Radioligand) Assay; settings: test compound 10 μM, ligand [3H]imipramine 2 nM, 60 min at RT
T1 construct: Cerep (Eurofins Discovery Services) 439
T1 sequence (P31645 whole entry): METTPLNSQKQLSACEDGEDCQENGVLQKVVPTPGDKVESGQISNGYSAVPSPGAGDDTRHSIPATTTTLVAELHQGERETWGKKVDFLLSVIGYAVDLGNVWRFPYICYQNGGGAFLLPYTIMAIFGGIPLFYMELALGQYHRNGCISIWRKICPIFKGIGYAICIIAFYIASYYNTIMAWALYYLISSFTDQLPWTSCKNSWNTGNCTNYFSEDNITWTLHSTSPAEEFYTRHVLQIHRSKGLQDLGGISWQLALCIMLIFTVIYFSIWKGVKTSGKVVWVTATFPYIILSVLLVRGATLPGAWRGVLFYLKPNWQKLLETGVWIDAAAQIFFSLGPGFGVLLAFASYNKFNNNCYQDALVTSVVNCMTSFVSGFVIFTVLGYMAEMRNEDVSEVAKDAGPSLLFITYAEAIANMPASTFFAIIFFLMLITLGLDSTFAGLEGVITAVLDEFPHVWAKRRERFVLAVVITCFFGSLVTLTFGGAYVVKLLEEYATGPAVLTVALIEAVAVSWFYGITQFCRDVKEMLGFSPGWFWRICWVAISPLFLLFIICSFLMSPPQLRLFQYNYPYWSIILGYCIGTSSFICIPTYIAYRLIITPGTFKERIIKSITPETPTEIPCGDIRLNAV
Description: The 5-HT inhibition assay was performed according to the Cerep SET Human Serotonin Transporter Binding (Antagonist Radioligand) Assay, such as the assay described in www.eurofinsdiscoveryservices.com/catalogmanagement/viewitem//439, accessed Jul. 22, 2019. In some experiments, the assay information is as shown below:
Ligand concentration: 2 nM; Non specific: imipramine (10 μM);
Incubation: 60 min at RT;
Control inhibitor: imipramine; and Test compound concentration: 10 μM. Exemplary results are presented as 5-HT % inhibition at 10 μM of compound for compounds of the disclosure in Table 1 and for comparator compounds in Table 2.

CDK7: cyclin H and MNAT1 = molecular target: T2, CDK7: cyclin H and MNAT1 (Homo sapiens, UniProt P50613); test: Invitrogen CDK7 assay (kinase inhibition); type: biochemical; settings: co-factors cyclin H and MNAT1, read-out: IC50 against CDK7
T2 construct: purchased Invitrogen
T2 sequence (P50613 whole entry): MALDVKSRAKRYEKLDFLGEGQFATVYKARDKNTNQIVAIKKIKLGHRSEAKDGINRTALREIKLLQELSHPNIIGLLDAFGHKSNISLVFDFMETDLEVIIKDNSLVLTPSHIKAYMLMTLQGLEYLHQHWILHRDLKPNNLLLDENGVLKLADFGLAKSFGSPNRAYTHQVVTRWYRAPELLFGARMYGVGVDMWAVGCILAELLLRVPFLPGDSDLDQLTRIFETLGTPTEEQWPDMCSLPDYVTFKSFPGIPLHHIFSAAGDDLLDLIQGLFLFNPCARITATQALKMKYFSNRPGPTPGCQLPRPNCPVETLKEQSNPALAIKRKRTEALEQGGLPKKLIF
T2 sequence (P51946 whole entry partner): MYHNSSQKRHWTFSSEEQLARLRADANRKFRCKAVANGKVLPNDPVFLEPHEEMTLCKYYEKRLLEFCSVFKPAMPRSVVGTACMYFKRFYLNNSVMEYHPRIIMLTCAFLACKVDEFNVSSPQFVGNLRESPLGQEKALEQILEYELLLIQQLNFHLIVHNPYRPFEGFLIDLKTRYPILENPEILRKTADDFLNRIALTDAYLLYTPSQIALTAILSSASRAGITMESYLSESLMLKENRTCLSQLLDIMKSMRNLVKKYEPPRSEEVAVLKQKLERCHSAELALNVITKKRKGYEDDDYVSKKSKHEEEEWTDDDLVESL
T2 sequence (P51948 whole entry partner): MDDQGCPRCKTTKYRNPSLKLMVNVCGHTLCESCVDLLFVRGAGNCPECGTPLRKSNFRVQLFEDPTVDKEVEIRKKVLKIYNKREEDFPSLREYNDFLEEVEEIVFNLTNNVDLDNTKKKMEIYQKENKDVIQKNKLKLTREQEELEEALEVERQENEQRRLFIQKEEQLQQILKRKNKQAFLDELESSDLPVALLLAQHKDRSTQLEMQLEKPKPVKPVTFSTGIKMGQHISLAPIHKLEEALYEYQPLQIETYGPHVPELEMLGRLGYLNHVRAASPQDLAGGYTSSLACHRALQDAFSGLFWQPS
Description: Compounds were assayed using Invitrogen CDK7 assay against a variety of kinases. Exemplary results are presented as IC50 values for compounds of the disclosure in Table 1 and for comparator compounds in Table 2. In Tables 1 and 2, “A” represents an IC50 value of less than 100 nM, “B” represents an IC50 value of greater than or equal to 100 nM and less than 1 μM, and “C” represents an IC50 value of greater than or equal to 1 μM. The co-factors used for each kinase in the assays were as follows: CDK7: cyclin H and MNAT1; CDK2: cyclin A; CDK9: cyclin T1.

[2] = Table 1, compounds of the disclosure

SMILES | inhibition at 10 µM ([1]; Table 2, comparator compounds) [%] | IC50 (CDK7: cyclin H and MNAT1; Table 2, comparator compounds) [nM] | inhibition at 10 µM ([1]; Table 1) [%] | IC50 (CDK7: cyclin H and MNAT1; [2]) [nM]
C=CC(=O)N1CCC[C@H](C(=O)Nc2n[nH]c3c2CN(C(=O)N[C@H](CN(C)C)c2ccccc2)C3(C)C)C1 [Compound C-5] | 94.3 | < 100 |  | 
C=CC(=O)Nc1cccc(Nc2n[nH]c3c2CN(C(=O)N[C@H](CN(C)C)c2ccccc2)C3(C)C)c1 [Compound C-3] | 98.2 | < 100 |  | 
C=CC(=O)Nc1cccc(C(=O)Nc2ccc(Nc3n[nH]c4c3CN(C(=O)N[C@H](CN(C)C)c3ccccc3)C4(C)C)cc2)c1 [Compound C-1] | 98.3 | < 100 |  | 
C=CC(=O)Nc1ccc(C(=O)Nc2n[nH]c3c2CN(C(=O)N[C@H](CN(C)C)c2ccccc2)C32CC2)cc1 [Compound C-2] | 95.3 | < 100 |  | 
C=CC(=O)Nc1ccc(C(=O)Nc2nn(C(F)F)c3c2CN(C(=O)N[C@H](CN(C)C)c2ccccc2)C3(C)C)cc1 [Compound I-5, (S)-3-(4-acrylamidobenzamido)-1-(difluoromethyl)-N-(2-(dimethylamino)-1-phenylethyl)-6,6-dimethyl-4,6-dihydropyrrolo[3,4-c]pyrazole-5(1H)-carboxamide] |  |  | 81.4 | < 100
C=CC(=O)Nc1ccc(C(=O)N2CCC(Nc3n[nH]c4c3CN(C(=O)N[C@H](CN(C)C)c3ccccc3)C4(C)C)CC2)cc1 [Compound C-4] | 96.4 | < 100 |  | 
C=CC(=O)Nc1ccc(C(=O)Nc2cccc(Nc3n[nH]c4c3CN(C(=O)N[C@H](CN(C)C)c3ccccc3)C4(C)C)c2)cc1 [Compound C-8] | 98 | < 100 |  | 
C=CC(=O)Nc1ccc(C(=O)Nc2nn(C)c3c2CN(C(=O)N[C@H](CN(C)C)c2ccccc2)C3(C)C)cc1 [Compound I-1, (S)-3-(4-acrylamidobenzamido)-N-(2-(dimethylamino)-1-phenylethyl)-1,6,6-trimethyl-4,6-dihydropyrrolo[3,4-c]pyrazole-5(1H)-carboxamide] |  |  | 26.8 | < 100
C=CC(=O)Nc1ccc(C(=O)Nc2cccc(C(=O)Nc3n[nH]c4c3CN(C(=O)N[C@H](CN(C)C)c3ccccc3)C4(C)C)c2)cc1 [Compound C-6] | 99.6 | < 100 |  | 
C=CC(=O)Nc1ccc(C(=O)Nc2nn(C)c3c2CN(C(=O)N[C@H](CN(C)C)c2ccccc2)C3(C)C)nc1 [Compound I-8, (S)-3-(5-acrylamidopicolinamido)-N-(2-(dimethylamino)-1-phenylethyl)-1,6,6-trimethyl-4,6-dihydropyrrolo[3,4-c]pyrazole-5(1H)-carboxamide] |  |  | 50.6 | 100 to 1000
C=CC(=O)Nc1ccc(C(=O)Nc2n[nH]c3c2CN(C(=O)N[C@H](CN(C)C)c2ccccc2)[C@@H]3C(C)C)cc1 [Compound C-7] | 74.5 | < 100 |  | 
C=CC(=O)Nc1ccc(C(=O)Nc2nn(C(F)F)c3c2CN(C(=O)N[C@H](CN(C)C)c2ccccc2)C3(C)C)nc1 [Compound I-33, (S)-3-(5-acrylamidopicolinamido)-1-(difluoromethyl)-N-(2-(dimethylamino)-1-phenylethyl)-6,6-dimethyl-4,6-dihydropyrrolo[3,4-c]pyrazole-5(1H)-carboxamide] |  |  | 88.8 | < 100
C=CC(=O)Nc1ccc(C(=O)Nc2n[nH]c3c2CN(C(=O)N[C@H](CN(C)C)c2ccccc2)C3(C)C)cc1C(F)(F)F [II-2] | 98.1 | < 100 |  | 
C=CC(=O)Nc1ccc(C(=O)Nc2n[nH]c3c2CN(C(=O)N[C@H](CN(C)C)c2ccccc2)C3(C)C)nc1 [Compound C-10] | 98.3 | < 100 |  | 
